Data from article PMC5428354, “Screening of a natural compound library identifies emodin, a natural compound from Rheum palmatum Linn that inhibits DPP4” (PeerJ, 2017).
Counter-ions that a name gives are not always drawn. Like-named read-outs stand apart in the source and are kept apart here.

Target: DPP4 (Homo sapiens, UniProt P27487)
Test: DPP4 activity assay (DPP4 inhibitor screening assay kit, Cayman);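 further: fluorescence read at excitation 360 nm and emission 460 nm after the enzyme reaction ran 30 min at 37 °C in a 96-well plate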
Assay type: biochemical
Design: purchased Cayman Chemical, Ann Arbor, MI, USA
Conditions: for remaining activity at 10 µM: 0.5 h
[1] = 10 µM, control mean 100.0, Figure 1A raw data, read-out: DPP4 activity in library screen, Exp 1
[2] = 10 µM, control mean 100.0, Figure 1A raw data, read-out: DPP4 activity in library screen, Exp 2
[3] = 10 µM, control mean 100.0, Figure 1A raw data, read-out: DPP4 activity in library screen, Exp 3
[4] = 10 µM, control mean 100.0, mean of Exp 1-3, read-out: DPP4 activity in library screen, Mean
[5] = 10 µM, control mean 100.0, Figure 1A raw data
[6] = 10 µM, control mean 100.0, mean of Exp 1-3
[7] = read-out: DPP4 activity in library screen, Exp 1, 10 µM, control mean 100.0, Figure 1A raw data
[8] = read-out: DPP4 activity in library screen, Exp 2, 10 µM, control mean 100.0, Figure 1A raw data
[9] = read-out: DPP4 activity in library screen, Exp 3, 10 µM, control mean 100.0, Figure 1A raw data
[10] = read-out: DPP4 activity in library screen, Mean, 10 µM, control mean 100.0, mean of Exp 1-3

DPP4, sequence (P27487 whole entry): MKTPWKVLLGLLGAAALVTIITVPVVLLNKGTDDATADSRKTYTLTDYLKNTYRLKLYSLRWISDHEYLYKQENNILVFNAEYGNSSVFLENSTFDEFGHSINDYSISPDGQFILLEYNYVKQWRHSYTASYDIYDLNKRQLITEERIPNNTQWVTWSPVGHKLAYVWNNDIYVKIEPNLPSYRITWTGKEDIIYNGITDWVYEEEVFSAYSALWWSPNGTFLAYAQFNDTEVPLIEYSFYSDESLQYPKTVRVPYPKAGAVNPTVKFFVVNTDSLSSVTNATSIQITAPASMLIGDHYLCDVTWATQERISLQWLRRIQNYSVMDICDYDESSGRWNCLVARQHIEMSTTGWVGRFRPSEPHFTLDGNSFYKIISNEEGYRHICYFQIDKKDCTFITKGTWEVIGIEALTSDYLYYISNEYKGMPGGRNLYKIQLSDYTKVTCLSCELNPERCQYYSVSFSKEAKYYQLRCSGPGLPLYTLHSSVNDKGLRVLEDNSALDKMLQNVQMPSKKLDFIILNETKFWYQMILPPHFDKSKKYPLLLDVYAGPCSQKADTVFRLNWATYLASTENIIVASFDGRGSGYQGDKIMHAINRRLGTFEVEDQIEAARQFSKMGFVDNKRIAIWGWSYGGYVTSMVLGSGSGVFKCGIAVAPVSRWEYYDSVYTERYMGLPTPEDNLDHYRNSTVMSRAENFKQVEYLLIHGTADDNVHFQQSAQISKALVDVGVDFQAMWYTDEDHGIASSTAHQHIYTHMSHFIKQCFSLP

| Compound | remaining activity at 10 µM [1] | remaining activity at 10 µM [2] | remaining activity at 10 µM [3] | remaining activity at 10 µM [4] | DPP4 activity in library screen, Exp 1 [5] | DPP4 activity in library screen, Exp 2 [5] | DPP4 activity in library screen, Exp 3 [5] | DPP4 activity in library screen, Mean [6] | further results |
| --- | --- | --- | --- | --- | --- | --- | --- | --- | --- |
| O=c1c(O)c(-c2ccc(O)cc2)oc2cc(O)cc(O)c12 [Kaempferol] | 52% | 72.5% | 70.4% | 65% | – | – | – | – | – |
| CCC1=C[C@@H]2CN3CCc4c([nH]c5ccccc45)[C@@](C(=O)OC)(C2)[C@@H]13 [Catharanthine] | – | – | – | – | 117.2 | 93.7 | 139.2 | 116.7 | – |
| Cl.N=c1ccn2c(n1)O[C@H]1[C@H](O)[C@@H](CO)O[C@H]12 [Cyclocytidine HCl] | – | – | – | – | 110.3 | 95 | 97.8 | 101.0 | – |
| C[N+](C)(C)CC(O)CC(=O)O.[Cl-] (racemic) [DL-Carnitine HCl] | – | – | – | – | 97.3 | 93.1 | 99.1 | 96.5 | – |
| COc1ccc([C@@H]2CC(=O)c3c(O)cc(O)cc3O2)cc1O [Hesperetin] | 80.8% | 106% | 78.5% | 88.4% | – | – | – | – | – |
| O=C(O)[C@H]1O[C@@H](Oc2cc3oc(-c4ccccc4)cc(=O)c3c(O)c2O)[C@H](O)[C@@H](O)[C@@H]1O [Baicalin] | 71.4% | 51.3% | 111% | 77.9% | – | – | – | – | – |
| OC[C@@H](O)[C@@H](O)[C@H](O)[C@H](O)CO [D-Mannitol] | 96% | 95.6% | 83.5% | 91.7% | – | – | – | – | – |
| COc1ccc2cc3[n+](cc2c1OC)CCc1cc2c(cc1-3)OCO2.[Cl-] [Berberine HCl] | – | – | – | – | 52.4 | 58.4 | 54.2 | 55.0 | – |
| C[C@@H]1O[C@@H](O)[C@H](O)[C@H](O)[C@H]1O.O [L-(+)-Rhamnose Monohydrate] | – | – | – | – | 92.8 | 91.1 | 93 | 92.3 | – |
| C=CCc1ccc(O)c(-c2ccc(O)c(CC=C)c2)c1 [Honokiol] | 106% | 94.1% | 105% | 102% | – | – | – | – | – |
| COc1c(O)cc2c(c1O)[C@@H]1O[C@H](CO)[C@@H](O)[C@H](O)[C@H]1OC2=O [Bergenin] | 114% | 102% | 73.5% | 96.3% | – | – | – | – | – |
| COC1=C[C@@H]2[C@@H]3Cc4ccc(OC)c(O)c4[C@]2(CCN3C)CC1=O [Sinomenine] | – | – | – | – | – | – | – | – | remaining activity at 10 µM (read-out: DPP4 activity in library screen, Exp 1): 103%; remaining activity at 10 µM (read-out: DPP4 activity in library screen, Exp 2): 93.4%; remaining activity at 10 µM (read-out: DPP4 activity in library screen, Mean): 104% |
| COc1cc(CCC(C)=O)ccc1O [Vanillylacetone] | – | – | – | – | 87.8 | 96.8 | 79.9 | 88.2 | – |
| O=C(/C=C/C=C/c1ccc2c(c1)OCO2)N1CCCCC1 [Piperine] | 67.7% | 60.2% | 77.8% | 68.6% | – | – | – | – | – |
| C[C@H]1COC2=C1C(=O)C(=O)c1c2ccc2c1CCCC2(C)C [Cryptotanshinone] | 60.3% | 66.5% | 58.2% | 61.7% | – | – | – | – | – |
| O=c1c2ccccc2oc2ccccc12 [Xanthone] | 88.9% | 79.9% | 77.7% | 82.2% | – | – | – | – | – |
| O=c1ccc2cc(O[C@@H]3O[C@H](CO)[C@@H](O)[C@H](O)[C@H]3O)c(O)cc2o1 [Esculin] | – | – | – | – | – | – | – | auto-fluorescence | – |
| O=C1CCC[C@@H]2[C@H]3CCCN4CCC[C@@H](CN12)[C@@H]34 [(+)-Matrine] | – | – | – | – | 101.6 | 98 | 94.4 | 98.0 | – |
| O=c1c(-c2ccc(O)cc2)coc2c([C@@H]3O[C@H](CO)[C@@H](O)[C@H](O)[C@H]3O)c(O)ccc12 [Puerarin] | 94.4% | 98% | 93.8% | 95.4% | – | – | – | – | – |
| O=C(O[C@@H]1Cc2c(O)cc(O)cc2O[C@@H]1c1cc(O)c(O)c(O)c1)c1cc(O)c(O)c(O)c1 [(-)-Epigallocatechin Gallate] | 100% | 90.2% | 81.9% | 90.8% | – | – | – | – | – |
| Cc1cc(=O)oc2cc(O)ccc12 [4-Methylumbelliferone (4-MU), 4-Methylumbelliferone] | – | – | – | – | – | – | – | auto-fluorescence | – |
| COc1ccc(-c2cc(=O)c3c(OC)c(OC)c(OC)c(OC)c3o2)cc1 [Tangeretin] | 75.6% | 80.1% | 66.2% | 74% | – | – | – | – | – |
| CNCC(O)c1ccc(O)cc1 (centres unmarked) [Synephrine] | 98.7% | 76.9% | 87.7% | 87.8% | – | – | – | – | – |
| CC(C)[C@]12O[C@H]1[C@@H]1O[C@]13[C@]1(O[C@H]1C[C@H]1C4=C(CC[C@@]13C)C(=O)OC4)[C@@H]2O [Triptolide (PG490), Triptolide] | – | – | – | – | – | – | – | – | remaining activity at 10 µM [7]: 98.7%; remaining activity at 10 µM [8]: 94.9%; remaining activity at 10 µM [9]: 109%; remaining activity at 10 µM [10]: 101% |
| Br.CCN1C[C@]2(OC(=O)c3ccccc3NC(C)=O)CC[C@H](OC)[C@]34C1[C@H](C[C@H]23)[C@@]1(O)C[C@H](OC)[C@H]2C[C@@H]4[C@]1(O)[C@H]2OC [Lappaconite HBr] | – | – | – | – | 95.4 | 80.2 | 92.6 | 89.4 | – |
| CC1(C)[C@@H](O)CC[C@]2(C)[C@H]3C(=O)C=C4[C@@H]5C[C@@](C)(C(=O)O)CC[C@]5(C)CC[C@@]4(C)[C@]3(C)CC[C@@H]12 [Enoxolone] | 84.3% | 87% | 95.5% | 88.9% | – | – | – | – | – |
| O=C(CCc1ccc(O)cc1)c1c(O)cc(O)cc1O [Phloretin] | 78.9% | 90.5% | 55.2% | 74.9% | – | – | – | – | – |
| COC(=O)[C@@H]1[C@H]2C[C@H]3c4[nH]c5ccccc5c4CCN3C[C@@H]2CC[C@@H]1O [Yohimbine HCl] | – | – | – | – | – | – | – | – | remaining activity at 10 µM [7]: 92.1%; remaining activity at 10 µM [8]: 92.7%; remaining activity at 10 µM [9]: 90.1%; remaining activity at 10 µM [10]: 91.6% |
| c1cc2c(cc1[C@H]1OC[C@H]3[C@@H]1CO[C@@H]3c1ccc3c(c1)OCO3)OCO2 [Sesamin] | 93.7% | 90% | 85.5% | 89.7% | – | – | – | – | – |
| COc1cc2c(cc1O)C[C@@H]1NCCc3cc(OC)c(O)c-2c31 [Norisoboldine] | – | – | – | – | 95.3 | 99.3 | 71 | 88.5 | – |
